According to US20190225652A1, “GENERATION OF PEPTIDES” (Hexima Limited, priority 2015, published 2019):

Assays:
Type in all cases: biochemical, Oldenlandia affinis
rOaAEP1b [1] = assay: Inhibition assay: rOaAEP1b activity against wt IQF peptide; conditions: 40 minutes preincubation, rOaAEP1b 4.4 μg mL^−1, IQF peptide 11 μM, 90 minutes
Experimental: FIG. 16 is a graphical representation of rOaAEP1b activity against the IQF peptide Abz-STRNGLPS-Y(3NO2) [SEQ ID NO:21] in the presence of protease inhibitors. rOaAEP1b (4.4 μg mL^−1 total protein) was allowed to cleave the IQF peptide (11 μM) for 90 minutes. Enzyme activity against the IQF peptide in the presence of either the Ac-YVAD-CHO or Ac-STRN-CHO inhibitors is reported relative to a no inhibitor control at the 90 minutes time point.
To assay activity of recombinant AEPs (rOaAEP1b, rOaAEP3, rOaAEP4 or rOaAEP5) against both internally-quenched and other fluorescent peptides, substrate and enzyme were diluted as appropriate in activity buffer (50 mM sodium acetate, 50 mM NaCl, 1 mM EDTA, 0.5 μM TCEP, pH 5). […] The change in fluorescence intensity over time was monitored on a SpectraMax M2 (Molecular Devices) using excitation/emission wavelengths of 320/420 nm (IQF peptides) or 360/460 nm (other fluorescent peptides).
To investigate the impact of inhibitors on enzyme activity against the wild type IQF peptide, Abz-STRNGLPS-Y(3NO2), rOaAEP1b (4.4 μg mL^−1 total protein) was incubated with Ac-YVAD-CHO (500 μM) or Ac-STRN-CHO (409 μM) for 40 minutes prior to addition to the substrate (11 μM). Enzyme activity against the wt IQF peptide was then assessed as described above.

[2] = test system: rOaAEP1b, rOaAEP3, rOaAEP4 and rOaAEP5; assay: Cyclization assay with rOaAEP1b, rOaAEP3, rOaAEP4 and rOaAEP5 (MALDI/ESI MS)
Experimental: Linear target peptides (280 μM, unless otherwise indicated) were incubated with rOaAEP1b, rOaAEP3, rOaAEP4 or rOaAEP5 (total protein concentration as indicated in the description of figures) in activity buffer (50 mM sodium acetate, 50 mM NaCl, 1 mM ethylenediaminetetraacetic acid [EDTA], 0.5 μM Tris(2-carboxyethyl)phosphine hydrochloride [TCEP], pH 5). The reaction was allowed to proceed for up to 22 hours at room temperature and was analysed by matrix-assisted laser desorption/ionization mass spectrometry (MALDI MS), high performance liquid chromatography (HPLC) or nuclear magnetic resonance (NMR) as appropriate.
(§1) Cyclization or inter-molecular ligation of linear target peptides was monitored by MALDI or ESI MS. In both cases, the reaction mixture (5-50 μL) was de-salted using C18 zip tips (Millipore) and eluted in 4 μL 50-75% v/v acetonitrile, 0.1% v/v trifluoroacetic acid (TFA).
(§2) For MALDI MS, a saturated MALDI matrix solution (α-cyano-4-hyroxycinnamic acid, CHCA, Bruker) prepared in 95% v/v acetonitrile, 0.1% v/v TFA was diluted 1:22 such that the final matrix solution comprised 90% v/v acetonitrile, 0.1% v/v TFA and 1 mM NH4H2PO4. Eluted samples were mixed 1:4 with the MALDI matrix, spotted onto a MALDI plate and analyzed by an Ultraflex III TOF/TOF (Bruker) in positive reflector mode. Data were analyzed using the flexAnalysis program (Bruker).
(§3) For ESI MS, 96 μl of 75% v/v acetonitrile, 01% v/v TFA was added to the de-salted sample. The sample was then injected into a MicroTOF Q (Bruker) and data was collected in positive ionisation mode. The mass of ligated or cyclized product was determined by charge deconvolution using the Compass DataAnalysis program (Bruker).
The ability of activated AEPs (rOaAEP1b, rOaAEP3, rOaAEP4 and rOaAEP5) to cyclize peptide substrates structurally unrelated to cyclotides was tested in the cyclization assay described in the Materials and Methods. The anti-malarial peptide R1 (Harris et al. (2009) J Biol Chem 284(14):9361-9371; Harris et al. (2005) Infect Immun 73(10):6981-6989); Bac2A, a linear derivative of the bovine peptide bactenecin (Wu and Hancock (1999) Antimicrob Agents Ch 43:1274-1276); and the anti-fungal peptide EcAMP1 (Nolde et al. (2011) J Biol Chem 286(28):25145-25153) were produced with additional AEP recognition residues and used as the substrates.
To investigate the sequence requirements for in vitro cyclization, R1 was used as a model peptide. The recognition residues added to this model peptide were sequentially trimmed to determine the minimal requirements for AEP-mediated cyclization. The N- and C-terminal recognition residues were also substituted with alternate amino acids to determine if particular classes of residues were preferred for cyclization by these recombinant AEPs. The ability of activated AEPs (rOaAEP1b, rOaAEP3, rOaAEP4 and rOaAEP5) to cyclize the R1 peptide with varied flanking sequences was then tested in the cyclization assay described in the Materials and Methods (FIG. 10; Table 3).

[3] = test system: rOaAEP1b, rOaAEP3, rOaAEP4 and rOaAEP5; assay: Intermolecular ligation assay with recombinant AEPs; conditions: target 140 μM
Experimental: Target peptides (140 μM) were incubated with a ligation partner peptide (700 μM) and a recombinant AEP (rOaAEP1b, rOaAEP3, rOaAEP4 or rOaAEP5 at 19.7 μg mL^−1 total protein) in activity buffer (50 mM sodium acetate, 50 mM NaCl, 1 mM EDTA, 0.5 μM TCEP, pH 5). The reaction was allowed to proceed for up to 22 hours at room temperature and was analysed by MALDI MS or electrospray ionisation (ESI) mass spectrometry as appropriate.
as §1, §2, §3
To investigate the ability of recombinantly produced AEPs to perform inter-molecular ligation (as well as the intra-molecular ligation required to produce backbone-cyclized peptides), target peptides were incubated with ligation partner peptides as well as active enzyme (FIG. 11). The appearance of new linear peptides were tracked. […]

rOaAEP1b [4] = assay: Cyclization assay with rOaAEP1b (MALDI MS); conditions: MALDI MS
Target sequence in this assay (as listed by the source): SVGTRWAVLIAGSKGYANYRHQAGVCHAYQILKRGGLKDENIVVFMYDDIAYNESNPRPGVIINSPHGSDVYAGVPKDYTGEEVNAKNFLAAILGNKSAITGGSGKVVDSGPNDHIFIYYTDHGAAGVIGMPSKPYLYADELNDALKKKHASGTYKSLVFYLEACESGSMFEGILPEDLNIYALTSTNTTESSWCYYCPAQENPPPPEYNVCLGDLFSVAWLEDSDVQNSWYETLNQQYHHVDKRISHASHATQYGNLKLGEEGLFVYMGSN

rOaAEP1b [5] = assay: Kinetics of rOaAEP1b-mediated cyclisation of wt kB1 precursor (RP-HPLC, Michaelis-Menten); conditions: substrate 75-250 μM, room temperature, 5 min, enzyme 19.7 μg ml^−1 total protein, ±s.e.m.
Experimental: FIG. 7 is a graphical representation showing the kinetics of rOaAEP1b-mediated cyclisation. Varying concentrations of substrate (kB1wt precursor) were incubated with enzyme (19.7 μg mL^−1 total protein) for 5 min. The amount of product formed was inferred by monitoring depletion of the precursor by RP-HPLC. […] The kinetic parameters derived from this plot are listed (±SEM).
To determine the kinetics of rOaAEP1b activity against the wt kB1 precursor (FIG. 1; SEQ ID NO: 11), the substrate was assayed at room temperature at a range of concentrations between 75 and 250 μM in a total volume of 20-160 μl of activity buffer. The total protein concentration of the enzyme preparation added to the kinetic assays was 19.7 μg ml^−1. The reaction was quenched after 5 min with 0.1% TFA and the volume adjusted to 800 μl. A volume of 700 μl was loaded onto a reversed-phase C18 analytical column (Agilent Eclipse C18, 5 μm, 4.6×150 mm) and peptides were separated by HPLC (19 min linear gradient of 12-60% acetonitrile, 0.1% TFA at 1 ml min^−1). The identity of eluted peaks was confirmed using MALDI MS. The area under the curve corresponding to the precursor peptide was quantitated by comparison to a standard curve and initial velocities were calculated by converting this to μmoles product formed. […]
Target sequence in this assay (as listed by the source): as above

Q: How did the “efficacy of inhibitor against rOaAEP1b” value (rOaAEP1b [1]; inhibitor 409 μM) turn out when Ac-STRN-aldehyde was run?
A: The value was “limited efficacy”.

Q: Which “efficacy of inhibitor against rOaAEP1b” value (rOaAEP1b [1]; inhibitor 500 μM) does the source give for Ac-YVAD-CHO here?
A: Its value is “limited efficacy”.

Q: “GLP-NaD1-TRNGLP: plant defensin NaD1 with AEP recognition residues at N- and C-termini, expressed in Pichia pastoris (GLPRECKTESNTFPGICITKPPCRKACISEKFTDGHCSKILRRCLCTKPCTRNGLP; Target peptides)” was tested. Which “AEP-mediated backbone cyclization of modified NaD1” value ([2]; 140 μM, no ligation partner, ESI-MS) did it give?
A: The value was “no evidence of backbone-cyclization”.

Q: What about the “inter-molecular ligation, C-terminal labelling” value ([3]; ligation partner GLPVSGE or PLPVSGE 700 μM, enzymes 19.7 μg mL^−1, 6-22 h, ESI-MS) of the same substance?
A: Its value is “new, linear, peptides were detected”.

Q: For “GLVFAEFLPLFSKFGSRMHILKGHV (R1) [SEQ ID NO:61, R1 peptide derivative]”, which “cyclization of linear precursor peptide by recombinant AEPs” value ([2]; peptides with added AEP recognition residues, 280 μM, enzymes 19.7 μg mL^−1 total protein, MS) is on record?
A: The value was “not itself an AEP substrate”.

Q: And the “inter-molecular ligation, N-terminal labelling” value ([3]; ligation partner biotin-TRNGL 700 μM, enzymes 19.7 μg mL^−1, 6 h, MALDI-MS)?
A: Its value is “created a new linear peptide that incorporated an N-terminal biotin”.

Q: How did the “processing/cyclization by rOaAEP1b” value (rOaAEP1b [4]) turn out when “wt kB1 precursor: synthetic linear kalata B1 precursor carrying the native C-terminal pro-hepta-peptide (GLPSLAA) (GLPVCGETCVGGTCNTPGCTCSWPVCTRNGLPSLAA; kB1wt)” was run?
A: Its value is “consistent with the expected mass of mature, cyclic kB1”.

Q: And the kcat (rOaAEP1b [5]; conservative estimate (32 kDa, total protein taken as active enzyme))?
A: The kcat was 0.53 (±0.1) s^−1.

Q: And the Km (rOaAEP1b [5])?
A: Its Km is 212 µM.
